Experimental data: ChEMBL document CHEMBL4507291 (2021)

Assays:
[1] = biological target: T1, Muscarinic acetylcholine receptor M1 (Homo sapiens) (UniProt P11229); conditions: Compound concentration 10.0 uM
T1 sequence (whole entry): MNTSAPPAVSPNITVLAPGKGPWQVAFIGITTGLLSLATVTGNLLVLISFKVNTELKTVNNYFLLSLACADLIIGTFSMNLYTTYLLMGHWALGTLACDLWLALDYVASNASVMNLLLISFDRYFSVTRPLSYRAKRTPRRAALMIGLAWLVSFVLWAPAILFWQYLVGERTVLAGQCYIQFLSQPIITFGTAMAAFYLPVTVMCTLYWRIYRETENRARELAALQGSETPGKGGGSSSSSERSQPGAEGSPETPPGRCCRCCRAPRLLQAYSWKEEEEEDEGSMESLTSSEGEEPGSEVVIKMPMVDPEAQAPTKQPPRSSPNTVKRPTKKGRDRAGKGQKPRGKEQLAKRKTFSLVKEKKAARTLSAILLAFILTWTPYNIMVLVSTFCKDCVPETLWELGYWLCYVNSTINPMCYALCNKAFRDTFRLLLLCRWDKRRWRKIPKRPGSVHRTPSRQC

[2] = biological target: Ribosomal protein S6 kinase alpha-6 (Homo sapiens) (UniProt Q9UK32)
[3] = biological target: Serine/threonine-protein kinase haspin (Homo sapiens) (UniProt Q8TF76)
Sequence of Serine/threonine-protein kinase haspin (Homo sapiens) (Q8TF76 whole entry): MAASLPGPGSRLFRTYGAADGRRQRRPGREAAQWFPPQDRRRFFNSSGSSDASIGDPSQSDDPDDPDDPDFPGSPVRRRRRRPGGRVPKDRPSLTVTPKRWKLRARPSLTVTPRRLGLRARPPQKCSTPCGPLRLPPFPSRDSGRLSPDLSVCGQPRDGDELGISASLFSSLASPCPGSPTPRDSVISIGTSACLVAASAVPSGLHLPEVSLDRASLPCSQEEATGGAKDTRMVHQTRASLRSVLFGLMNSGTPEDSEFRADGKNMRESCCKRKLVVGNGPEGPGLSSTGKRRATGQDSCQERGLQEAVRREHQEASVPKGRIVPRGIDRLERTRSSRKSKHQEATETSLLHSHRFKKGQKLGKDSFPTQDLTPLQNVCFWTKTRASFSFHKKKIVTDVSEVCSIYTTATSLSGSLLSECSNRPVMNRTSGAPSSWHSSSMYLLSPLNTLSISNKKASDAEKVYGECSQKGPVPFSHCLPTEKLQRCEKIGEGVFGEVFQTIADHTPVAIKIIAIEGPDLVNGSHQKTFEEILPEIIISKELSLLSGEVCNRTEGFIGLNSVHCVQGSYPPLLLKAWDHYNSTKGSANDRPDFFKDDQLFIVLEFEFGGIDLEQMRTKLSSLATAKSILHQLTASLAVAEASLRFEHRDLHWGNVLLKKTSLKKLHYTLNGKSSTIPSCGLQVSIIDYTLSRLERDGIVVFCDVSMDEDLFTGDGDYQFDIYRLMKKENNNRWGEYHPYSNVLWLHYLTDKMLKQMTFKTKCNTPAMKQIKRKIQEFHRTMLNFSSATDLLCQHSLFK

[4] = biological target: Serine/threonine-protein kinase Nek7 (Homo sapiens) (UniProt Q8TDX7)
Sequence of Serine/threonine-protein kinase Nek7 (Homo sapiens) (Q8TDX7 whole entry, looked up): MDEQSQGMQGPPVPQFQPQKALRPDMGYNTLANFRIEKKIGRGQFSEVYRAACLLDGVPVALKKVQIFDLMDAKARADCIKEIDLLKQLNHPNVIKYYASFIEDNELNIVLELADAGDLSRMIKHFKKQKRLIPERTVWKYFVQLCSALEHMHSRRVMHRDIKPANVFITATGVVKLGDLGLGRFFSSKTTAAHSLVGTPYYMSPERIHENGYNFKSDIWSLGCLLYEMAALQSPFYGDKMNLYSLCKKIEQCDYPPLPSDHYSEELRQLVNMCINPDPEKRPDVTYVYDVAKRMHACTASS

[5] = test system: Receptor-type tyrosine-protein kinase FLT3 (Homo sapiens), P36888 [UNDEFINED MUTATION]
Sequence of Receptor-type tyrosine-protein kinase FLT3 (Homo sapiens), P36888 [UNDEFINED MUTATION] (P36888 whole entry, looked up, change not shown): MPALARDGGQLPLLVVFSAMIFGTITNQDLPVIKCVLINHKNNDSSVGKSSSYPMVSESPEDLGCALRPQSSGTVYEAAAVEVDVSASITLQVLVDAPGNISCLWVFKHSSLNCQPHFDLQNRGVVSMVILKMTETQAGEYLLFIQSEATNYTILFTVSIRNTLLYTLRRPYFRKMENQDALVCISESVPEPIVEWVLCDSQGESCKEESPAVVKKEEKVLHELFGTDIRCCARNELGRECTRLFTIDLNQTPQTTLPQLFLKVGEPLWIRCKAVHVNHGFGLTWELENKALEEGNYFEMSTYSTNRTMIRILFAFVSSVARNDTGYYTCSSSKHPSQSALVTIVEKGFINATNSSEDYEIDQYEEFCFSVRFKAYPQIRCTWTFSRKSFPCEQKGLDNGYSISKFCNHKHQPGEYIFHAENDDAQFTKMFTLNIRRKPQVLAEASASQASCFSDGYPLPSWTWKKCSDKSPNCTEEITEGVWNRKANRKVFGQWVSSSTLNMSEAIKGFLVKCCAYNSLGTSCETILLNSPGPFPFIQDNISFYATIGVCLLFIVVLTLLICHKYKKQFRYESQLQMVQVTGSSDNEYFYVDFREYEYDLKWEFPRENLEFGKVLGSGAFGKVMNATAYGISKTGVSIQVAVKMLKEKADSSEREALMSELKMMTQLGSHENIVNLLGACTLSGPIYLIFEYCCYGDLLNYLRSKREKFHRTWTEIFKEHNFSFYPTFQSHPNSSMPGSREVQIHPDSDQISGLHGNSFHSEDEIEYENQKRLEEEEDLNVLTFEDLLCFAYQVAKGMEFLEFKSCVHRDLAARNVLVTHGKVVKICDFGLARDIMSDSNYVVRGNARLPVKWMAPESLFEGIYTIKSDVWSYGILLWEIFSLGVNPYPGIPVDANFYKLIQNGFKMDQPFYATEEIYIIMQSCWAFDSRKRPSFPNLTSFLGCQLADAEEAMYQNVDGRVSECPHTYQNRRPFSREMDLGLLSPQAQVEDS

[6] = biological target: T2, Myotonin-protein kinase (Homo sapiens) (UniProt Q09013)
T2 sequence (whole entry): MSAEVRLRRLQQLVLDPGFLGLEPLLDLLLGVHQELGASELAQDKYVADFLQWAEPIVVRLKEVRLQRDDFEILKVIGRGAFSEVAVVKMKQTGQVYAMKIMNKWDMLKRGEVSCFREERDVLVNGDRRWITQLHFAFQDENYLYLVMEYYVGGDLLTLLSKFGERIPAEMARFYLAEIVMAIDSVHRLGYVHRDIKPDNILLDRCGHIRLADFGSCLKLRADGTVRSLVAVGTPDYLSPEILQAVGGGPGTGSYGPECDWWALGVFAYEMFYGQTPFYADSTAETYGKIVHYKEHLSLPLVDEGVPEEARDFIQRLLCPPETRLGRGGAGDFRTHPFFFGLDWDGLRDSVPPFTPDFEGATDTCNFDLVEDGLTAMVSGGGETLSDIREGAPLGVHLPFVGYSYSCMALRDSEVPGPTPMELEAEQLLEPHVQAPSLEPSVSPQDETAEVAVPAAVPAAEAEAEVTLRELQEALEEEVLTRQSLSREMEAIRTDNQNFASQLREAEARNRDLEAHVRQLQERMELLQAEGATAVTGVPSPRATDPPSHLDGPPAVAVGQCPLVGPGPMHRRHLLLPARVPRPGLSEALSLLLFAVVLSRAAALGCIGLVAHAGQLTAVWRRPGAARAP

[7] = biological target: Serine/threonine-protein kinase Nek10 (Homo sapiens) (UniProt Q6ZWH5)
Sequence of Serine/threonine-protein kinase Nek10 (Homo sapiens) (Q6ZWH5 whole entry): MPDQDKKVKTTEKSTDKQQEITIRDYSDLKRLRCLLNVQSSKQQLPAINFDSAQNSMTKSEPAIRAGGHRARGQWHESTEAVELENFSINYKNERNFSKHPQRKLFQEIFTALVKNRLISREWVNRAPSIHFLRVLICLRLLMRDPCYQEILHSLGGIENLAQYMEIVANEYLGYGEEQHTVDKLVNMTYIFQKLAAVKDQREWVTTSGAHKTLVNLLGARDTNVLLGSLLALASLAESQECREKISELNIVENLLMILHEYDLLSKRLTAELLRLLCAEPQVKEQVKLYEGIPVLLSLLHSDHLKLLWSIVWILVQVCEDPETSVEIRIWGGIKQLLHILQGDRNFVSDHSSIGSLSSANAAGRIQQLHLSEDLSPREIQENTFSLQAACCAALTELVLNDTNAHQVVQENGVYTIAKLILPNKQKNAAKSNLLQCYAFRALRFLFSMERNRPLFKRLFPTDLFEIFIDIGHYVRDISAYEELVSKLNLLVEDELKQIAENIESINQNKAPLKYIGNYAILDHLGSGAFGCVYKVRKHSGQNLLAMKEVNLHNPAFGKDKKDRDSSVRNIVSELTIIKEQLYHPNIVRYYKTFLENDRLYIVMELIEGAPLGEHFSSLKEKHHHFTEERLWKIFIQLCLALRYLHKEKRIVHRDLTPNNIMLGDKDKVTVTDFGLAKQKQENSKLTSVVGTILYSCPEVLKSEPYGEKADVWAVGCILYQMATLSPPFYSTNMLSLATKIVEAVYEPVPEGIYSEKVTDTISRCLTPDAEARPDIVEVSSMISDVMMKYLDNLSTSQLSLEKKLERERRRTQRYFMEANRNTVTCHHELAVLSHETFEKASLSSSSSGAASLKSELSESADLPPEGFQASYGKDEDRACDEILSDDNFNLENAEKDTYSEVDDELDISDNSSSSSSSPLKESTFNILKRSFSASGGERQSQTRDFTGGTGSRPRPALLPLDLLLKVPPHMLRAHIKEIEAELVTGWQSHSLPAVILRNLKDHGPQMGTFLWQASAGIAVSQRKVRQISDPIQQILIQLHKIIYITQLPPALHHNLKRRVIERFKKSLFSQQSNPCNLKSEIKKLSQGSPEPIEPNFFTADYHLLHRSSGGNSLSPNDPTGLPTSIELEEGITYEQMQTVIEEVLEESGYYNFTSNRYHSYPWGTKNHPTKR

[8] = biological target: Beta-3 adrenergic receptor (Homo sapiens) (UniProt P13945); conditions: Compound concentration 10.0 uM
Sequence of Beta-3 adrenergic receptor (Homo sapiens) (P13945 whole entry, looked up): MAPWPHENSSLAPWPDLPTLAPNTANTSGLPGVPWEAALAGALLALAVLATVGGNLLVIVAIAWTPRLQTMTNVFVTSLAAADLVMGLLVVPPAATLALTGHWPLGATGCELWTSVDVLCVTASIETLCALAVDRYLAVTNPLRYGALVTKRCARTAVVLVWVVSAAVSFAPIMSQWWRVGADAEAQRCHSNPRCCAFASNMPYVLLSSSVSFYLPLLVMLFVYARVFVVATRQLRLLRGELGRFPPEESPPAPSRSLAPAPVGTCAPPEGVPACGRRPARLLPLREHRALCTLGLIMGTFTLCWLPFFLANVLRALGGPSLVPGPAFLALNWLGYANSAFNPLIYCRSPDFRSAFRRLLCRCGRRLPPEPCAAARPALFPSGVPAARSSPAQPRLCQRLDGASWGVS

[9] = biological target: T3, Alpha-1D adrenergic receptor (Homo sapiens) (UniProt P25100); conditions: Compound concentration 10.0 uM
T3 sequence (whole entry): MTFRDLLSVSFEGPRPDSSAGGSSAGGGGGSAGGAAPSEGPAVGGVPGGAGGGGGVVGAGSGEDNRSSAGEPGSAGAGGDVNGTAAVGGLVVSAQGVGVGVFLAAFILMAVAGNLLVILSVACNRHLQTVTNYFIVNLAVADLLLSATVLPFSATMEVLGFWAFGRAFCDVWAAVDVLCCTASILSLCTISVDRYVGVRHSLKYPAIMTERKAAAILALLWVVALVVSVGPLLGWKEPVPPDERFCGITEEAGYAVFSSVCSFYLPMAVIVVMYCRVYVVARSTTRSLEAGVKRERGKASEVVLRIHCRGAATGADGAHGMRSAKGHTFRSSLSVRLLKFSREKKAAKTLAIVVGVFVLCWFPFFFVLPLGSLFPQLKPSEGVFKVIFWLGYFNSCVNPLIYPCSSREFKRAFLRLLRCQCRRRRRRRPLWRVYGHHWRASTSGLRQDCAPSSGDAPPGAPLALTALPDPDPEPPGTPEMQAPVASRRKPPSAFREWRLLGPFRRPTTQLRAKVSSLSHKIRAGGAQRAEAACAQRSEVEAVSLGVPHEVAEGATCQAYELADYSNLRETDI

[10] = biological target: Phosphorylase b kinase gamma catalytic chain, skeletal muscle/heart isoform (Homo sapiens) (UniProt Q16816)
Sequence of Phosphorylase b kinase gamma catalytic chain, skeletal muscle/heart isoform (Homo sapiens) (Q16816 whole entry, looked up, canonical isoform): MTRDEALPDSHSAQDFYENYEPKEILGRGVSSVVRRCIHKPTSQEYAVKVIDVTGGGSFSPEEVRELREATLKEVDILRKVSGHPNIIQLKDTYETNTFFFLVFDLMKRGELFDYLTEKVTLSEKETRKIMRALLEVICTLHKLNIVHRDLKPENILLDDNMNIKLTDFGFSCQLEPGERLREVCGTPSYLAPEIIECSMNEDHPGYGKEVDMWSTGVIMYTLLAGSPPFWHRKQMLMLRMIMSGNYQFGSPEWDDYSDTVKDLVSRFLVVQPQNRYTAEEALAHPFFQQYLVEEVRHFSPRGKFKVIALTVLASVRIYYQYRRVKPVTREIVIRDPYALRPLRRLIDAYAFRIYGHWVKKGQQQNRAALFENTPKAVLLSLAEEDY

[11] = biological target: Calcium/calmodulin-dependent protein kinase type 1G (Homo sapiens) (UniProt Q96NX5)
Sequence of Calcium/calmodulin-dependent protein kinase type 1G (Homo sapiens) (Q96NX5 whole entry): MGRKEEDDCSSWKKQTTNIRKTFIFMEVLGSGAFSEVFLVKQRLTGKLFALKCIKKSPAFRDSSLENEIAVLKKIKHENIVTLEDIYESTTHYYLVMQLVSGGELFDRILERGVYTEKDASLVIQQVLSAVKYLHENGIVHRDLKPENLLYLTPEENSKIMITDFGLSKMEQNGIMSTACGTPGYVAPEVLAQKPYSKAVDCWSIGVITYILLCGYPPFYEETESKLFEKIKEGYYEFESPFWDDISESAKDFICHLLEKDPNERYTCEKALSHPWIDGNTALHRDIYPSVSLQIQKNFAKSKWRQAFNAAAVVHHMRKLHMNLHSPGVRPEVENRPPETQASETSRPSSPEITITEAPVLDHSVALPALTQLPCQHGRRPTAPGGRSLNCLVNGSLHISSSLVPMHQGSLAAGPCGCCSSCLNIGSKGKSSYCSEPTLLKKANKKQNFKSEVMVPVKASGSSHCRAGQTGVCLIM

[12] = biological target: Receptor-interacting serine/threonine-protein kinase 2 (Homo sapiens) (UniProt O43353)
[13] = biological target: Dual specificity protein kinase CLK1 (Homo sapiens) (UniProt P49759)
Sequence of Dual specificity protein kinase CLK1 (Homo sapiens) (P49759 whole entry, looked up, canonical isoform): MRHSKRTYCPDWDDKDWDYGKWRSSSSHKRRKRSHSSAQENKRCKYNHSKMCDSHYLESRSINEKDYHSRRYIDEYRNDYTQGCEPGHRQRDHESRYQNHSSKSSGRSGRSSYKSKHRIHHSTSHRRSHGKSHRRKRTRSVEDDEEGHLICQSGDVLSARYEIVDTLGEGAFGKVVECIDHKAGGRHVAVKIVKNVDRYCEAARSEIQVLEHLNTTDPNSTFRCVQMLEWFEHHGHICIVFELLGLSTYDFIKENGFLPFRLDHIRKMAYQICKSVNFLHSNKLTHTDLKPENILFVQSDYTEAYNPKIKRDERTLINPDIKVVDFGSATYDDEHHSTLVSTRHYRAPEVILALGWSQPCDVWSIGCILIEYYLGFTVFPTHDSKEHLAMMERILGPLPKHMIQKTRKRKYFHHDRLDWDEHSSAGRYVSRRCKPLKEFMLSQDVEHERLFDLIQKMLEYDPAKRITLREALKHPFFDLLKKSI

[14] = biological target: Casein kinase I isoform gamma-3 (Homo sapiens) (UniProt Q9Y6M4)
[15] = biological target: T4, Megakaryocyte-associated tyrosine-protein kinase (Homo sapiens) (UniProt P42679)
T4 sequence (whole entry): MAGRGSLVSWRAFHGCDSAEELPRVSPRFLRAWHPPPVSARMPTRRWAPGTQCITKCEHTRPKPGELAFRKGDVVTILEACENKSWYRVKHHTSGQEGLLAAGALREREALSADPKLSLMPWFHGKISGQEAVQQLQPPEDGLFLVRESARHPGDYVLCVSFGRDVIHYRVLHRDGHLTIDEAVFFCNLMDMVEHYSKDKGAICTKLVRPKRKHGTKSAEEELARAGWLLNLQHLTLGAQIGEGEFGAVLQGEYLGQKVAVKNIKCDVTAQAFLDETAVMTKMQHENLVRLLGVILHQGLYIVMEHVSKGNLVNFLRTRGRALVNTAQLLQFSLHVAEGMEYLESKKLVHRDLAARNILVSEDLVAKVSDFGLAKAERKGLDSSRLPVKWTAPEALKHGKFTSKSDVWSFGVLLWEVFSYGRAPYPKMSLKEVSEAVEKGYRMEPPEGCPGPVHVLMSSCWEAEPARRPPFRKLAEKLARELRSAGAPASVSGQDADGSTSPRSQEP

[16] = Compound concentration 1000.0 nM
[17] = Compound concentration 100.0 nM

C[C@@H]1CN(c2cc(-c3nn(C)c4ccc(OC5(C)CC5)cc34)ncn2)C[C@H](C)O1 [MLi-2-NC]
inactive: inhibition [1] -1.02% | residual activity [2, 16] 78% | residual activity [3, 16] 99% | residual activity [4, 16] 79% | residual activity [5, 16] 88% | residual activity [6, 16] 100% | residual activity [7, 16] 89% | inhibition [8] 11.8% | inhibition [9] 10.2% | residual activity [10, 16] 90% | residual activity [11, 16] 82% | residual activity [12, 16] 100% | residual activity [13, 16] 86% | residual activity [14, 16] 100% | residual activity [15, 16] 80%

C[C@@H]1CN(c2cc(-c3n[nH]c4ccc(OC5(C)CC5)cc34)ncn2)C[C@H](C)O1 [MLi-2]
inactive: inhibition [1] 3.04% | residual activity [2, 17] 77% | residual activity [3, 17] 74% | residual activity [4, 17] 100% | residual activity [5, 17] 75% | residual activity [6, 17] 85% | residual activity [7, 17] 69% | inhibition [8] -5.99% | inhibition [9] 3.26% | residual activity [10, 17] 100% | residual activity [11, 17] 91% | residual activity [12, 17] 100% | residual activity [13, 17] 86% | residual activity [14, 17] 95% | residual activity [15, 17] 94%
